Assay results: patent US4180505A, “Novel steroidspirooxazolidines and process for their preparation” (Richter Gedeon Vegyeszet, Gyar RT, priority 1977, dated 1979)

Tests used:
[1] = test system: aldosterone; experiment: Aldosterone antagonist effect in adrenalectomized DOCA-treated rats, urinary Na+/K+ (method of C. M. Kagawa); assay type: in vivo; conditions: for Activity related to Spironolactone: Spironolactone = 1.0
Description: M. Kagawa [C. M. Kagawa et al., J. Pharmacol. Exp. Ther. 126, 123 (1959)].
18 hours after the removal of their suprarenal glands, desoxycorticosterone acetate (DOCA) was administered to groups of rats which were simultaneously treated with the test and, respectively, the reference compounds. The reference compound, i.e. Spironolactone (17α-carboxyethyl-17β-hydroxy-7α-acetylthioandrost-4-en-3-one-lactone), was administered orally in a dose of 480 μg./animal. The Na^+ and K^+ concentrations in the urine of the treated animals were determined by flame photometry. Evaluation was made on the basis of the Na^+ /K^+ proportions.

[2] = test system: vesicula seminalis gland (weight increase induced by testosterone propionate); experiment: Antiandrogenic activity in castrated testosterone propionate-treated male mice, vesicula seminalis weight (modified method of Dorfman); assay type: in vivo
Description: The antiandrogenic activity of the compounds according to the invention--anundesirable side-effect exerted by spironolactone during protracted treating--was tested by the modified method of Dorfman (R. Dorfman: Steroids 2, 185 (1963).
Castrated male mice weighing 25 to 30 g. each were treated with testosterone propionate (T.P.) in every second day. The total dose amounted to 300 μg./2 weeks/animal. The test compounds were administered parallel with the T. […] The antiandrogenic activity of a given test compound was expressed in %. If the increase in weight of the vesicula seminalis gland induced by T.P. is 100%, subtracting the weight-increase induced by the combination of T.P. and the test compound from 100, the percentage inhibition is obtained.
Each group of test amimals consisted of from 8 to 10 mice.

[3] = Rattus norvegicus, po, 480 μg/animal p.o., read-out: DOCA blocking activity
[4] = Rattus norvegicus, po, 960 μg/animal p.o., read-out: DOCA blocking activity
[5] = 5.0 mg/2 weeks/animal s.c., with testosterone propionate
[6] = 10.0 mg/2 weeks/animal s.c., with testosterone propionate

Row | SMILES | log (Na × 10 / K), X ± S ([1]; 480 μg/animal p.o., with DOCA) | Activity related to Spironolactone ([1]; 480 μg/animal p.o.) | log (Na × 10 / K), X ± S ([1]; 960 μg/animal p.o., with DOCA) | inhibition in vivo at 0.48 mg [1, 3] [%] | inhibition in vivo at 0.96 mg [1, 4] [%] | + Stimulation, % / - Inhibition, % [2, 5] | Increase in weight of vesicula seminalis [2, 5] [%] | further results
1 | CN1C[C@@]2(CC[C@H]3[C@@H]4CC=C5C[C@@H](F)CC[C@]5(C)[C@H]4CC[C@@]32C)OC1=O [3β-Fluoroandrost-5-ene-17S-spiro-5'-(2'-oxo-3'-methyloxazolidine)] | 0.98 | 0.80 | 1.13 | 26 | 45 | – | – | –
2 | CN1C[C@@]2(CC[C@H]3[C@@H]4C=C[C@]56C[C@@H](O)CC[C@]5(C6)[C@H]4CC[C@@]32C)OC1=O [3β-Hydroxy-5β,19-cycloandrost-6-ene-17S-spiro-5'-(2'-oxo-3'-methyloxazolidine)] | 1.18 | 0.98 | 1.23 | 51 | 58 | – | – | –
3 | C/C=C\N1C[C@@]2(CC[C@H]3[C@@H]4CCC5=C(CC=C(OC)C5)[C@H]4CC[C@@]32CC)OC1=O [13β-Ethyl-3-methoxygona-2,5(10)-diene-17S-spiro-5'-(2'-oxo-3'-(1"-cis-propenyl)-oxazolidine)] | 1.16 | 0.96 | 1.22 | 49 | 56 | +12.5% | 112.5 | –
4 | CC[C@]12CC[C@H]3[C@@H](CCC4=CC(=NOC)CC[C@@H]43)[C@@H]1CC[C@@]21CN(C)C(=O)O1 [13β-Ethyl-3-methoxyiminogon-4-ene-17S-spiro-5'-(2'-oxo-3'-methyloxazolidine)] | 1.19 | 0.98 | 0.97 | 53 | 24 | +15.0% | 115.0 | –
5 | CC[C@]12CC[C@H]3[C@@H](CCC4=CC(=O)CC[C@@H]43)[C@@H]1CC[C@@]21CN(C)C(=O)O1 [13β-Ethyl-4-en-3-one-17S-spiro-5'-(2'-oxo-3'-methyloxazolidine)] | 1.13 | 0.93 | 1.16 | 45 | 49 | – | – | log (Na × 10 / K), X ± S ([1]; 1920 μg/animal p.o., with DOCA): 1.30; inhibition in vivo at 1.92 mg ([1]; Rattus norvegicus, po, 1920 μg/animal p.o., read-out: DOCA blocking activity): 67%
6 | CC[C@]12CC[C@@H]3C4=C(CC[C@H]3[C@@H]1CC[C@@]21CN(C)C(=O)O1)CC(=O)CC4 [13β-Ethylgon-5(10)-en-3-one-17S-spiro-5'-(2'-oxo-3'-methyloxazolidine)] | 1.02 | 0.84 | 1.34 | 31 | 71 | +14.0% | 114.0 | –
7 | CC[C@]12C=CC3=C4CCC(=O)C=C4CC[C@H]3[C@@H]1CC[C@@]21CN(C)C(=O)O1 [13β-Ethylgona-4,9(10),11-trien-3-one-17S-spiro-5'-(2'-oxo-3'-methyloxazolidine)] | – | – | – | – | – | – | – | antialdosterone activity ([1]; compared with the compounds listed in Table I, result in words): negligible; inhibition against testosterone propionate (antiandrogenic activity) ([2]; 300 μg/2 weeks/animal, against 300 μg/2 weeks/animal T.P.): 70%
8 | CN1C[C@@]2(CC[C@H]3[C@@H]4C=CC5=CC(=O)CC[C@]5(C)[C@H]4CC[C@@]32C)OC1=O [Androst-4,6-dien-3-one-17S-spiro-5'-(2'-oxo-3'-methyloxazolidine)] | 1.14 | 0.94 | 1.74 | 46 | 123 | -1.4% | 98.6 | –
9 | CC(=O)OCC(=O)[C@H]1CC[C@H]2[C@@H]3CCC4=CC(=O)CC[C@]4(C)[C@H]3CC[C@]12C [DOCA, Pregn-4-ene-3,20-dion-21-ol-acetate, reference compound] | – | – | – | – | – | – | – | log (Na × 10 / K), X ± S ([1]; DOCA, 12.5 μg/animal s.c.): 0.78
10 | CN1C[C@@]2(CC[C@H]3[C@@H]4CCC5=CC(=O)CC[C@@H]5[C@H]4CC[C@@]32C)OC1=O [Oestr. 4-en-3-one-17S-spiro-5'-(2'-oxo-3'-methyloxazolidine)] | 1.26 | 1.04 | 1.12 | 61 | 44 | +13.0% | 113.0 | –
11 | CC(=O)S[C@@H]1CC2=CC(=O)CC[C@]2(C)[C@H]2CC[C@@]3(C)[C@@H](CC[C@@]34CCC(=O)O4)[C@H]12 [Spironolactone, 17α-carboxyethyl-17β-hydroxy-7α-acetylthioandrost-4-en-3-one-lactone, reference compound] | 1.21 | 1.0 | – | 54 | – | -32.5% | 67.5 | inhibition (antiandrogenic activity) ([2]; 5.0 mg/2 weeks/animal s.c.): 32.5%; inhibition (antiandrogenic activity) ([2]; 10.0 mg/2 weeks/animal s.c.): 50.6%; + Stimulation, % / - Inhibition, % [2, 6]: -50.6%; Increase in weight of vesicula seminalis [2, 6]: 49.4%
12 | CCC(=O)O[C@H]1CC[C@H]2[C@@H]3CCC4=CC(=O)CC[C@]4(C)[C@H]3CC[C@]12C [Testosterone propionate, testosterone propionate, reference compound] | – | – | – | – | – | – | – | Increase in weight of vesicula seminalis ([2]; testosterone propionate, 0.3 mg/2 weeks/animal): 100%
